Among the data in patent publication US11958844B2, “1,3,4-oxadiazole derivative compounds as histone deacetylase 6 inhibitor, and pharmaceutical composition comprising the same” (Chong Kun Dang Pharmaceutical Corp., priority 2018, dated 2024) are IC50 values, retold here.

This test addresses T1, HDAC6 human recombinant (Homo sapiens, UniProt Q9UBN7).
T1 sequence (Q9UBN7 1-1215): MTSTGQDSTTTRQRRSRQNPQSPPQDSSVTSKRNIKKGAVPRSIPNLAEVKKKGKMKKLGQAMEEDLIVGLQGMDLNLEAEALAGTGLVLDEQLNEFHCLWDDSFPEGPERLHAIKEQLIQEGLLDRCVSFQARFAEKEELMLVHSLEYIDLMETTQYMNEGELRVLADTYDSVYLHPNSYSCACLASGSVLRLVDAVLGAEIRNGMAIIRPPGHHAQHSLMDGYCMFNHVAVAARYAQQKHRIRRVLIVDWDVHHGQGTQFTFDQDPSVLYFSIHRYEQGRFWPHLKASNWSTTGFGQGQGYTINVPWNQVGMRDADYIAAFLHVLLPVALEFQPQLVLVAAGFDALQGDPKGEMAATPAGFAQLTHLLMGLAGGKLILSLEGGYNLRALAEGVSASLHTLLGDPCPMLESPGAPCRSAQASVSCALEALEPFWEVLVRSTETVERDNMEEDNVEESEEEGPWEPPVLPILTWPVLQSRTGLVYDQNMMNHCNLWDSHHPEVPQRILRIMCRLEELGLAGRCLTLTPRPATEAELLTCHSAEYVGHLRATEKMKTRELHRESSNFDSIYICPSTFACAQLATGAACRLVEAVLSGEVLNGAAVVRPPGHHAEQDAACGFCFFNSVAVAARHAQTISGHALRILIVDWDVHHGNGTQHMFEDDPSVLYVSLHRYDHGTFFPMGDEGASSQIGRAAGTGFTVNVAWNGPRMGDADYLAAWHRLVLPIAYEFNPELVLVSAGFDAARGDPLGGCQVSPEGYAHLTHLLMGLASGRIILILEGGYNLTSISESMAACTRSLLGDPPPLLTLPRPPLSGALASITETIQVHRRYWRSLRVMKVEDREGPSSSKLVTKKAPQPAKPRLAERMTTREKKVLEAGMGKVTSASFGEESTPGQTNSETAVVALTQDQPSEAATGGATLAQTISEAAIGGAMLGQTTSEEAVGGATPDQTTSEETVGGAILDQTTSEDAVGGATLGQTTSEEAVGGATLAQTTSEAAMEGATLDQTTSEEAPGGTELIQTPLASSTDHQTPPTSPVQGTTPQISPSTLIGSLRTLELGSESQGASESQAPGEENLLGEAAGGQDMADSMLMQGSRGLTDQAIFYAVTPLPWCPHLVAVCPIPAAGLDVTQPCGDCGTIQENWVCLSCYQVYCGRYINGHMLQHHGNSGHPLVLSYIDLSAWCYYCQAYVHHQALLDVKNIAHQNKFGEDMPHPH
Description: HDAC enzyme activity inhibition (in vitro), fluorimetric HDAC6 assay. It counts as biochemical. The following applies: samples at 0.1, 1, 10, 100 and 1000 nM, 37° C. 60 minutes, fluorescence Ex 390, Em 460. Here is the method: To identify this, HDAC1/6 enzyme selectivity and cell selectivity (HDAC1: histone acetylation/HDAC6: tubulin acetylation) were investigated accordingly.
An HDAC enzyme inhibitory ability of a test material was measured by means of HDAC1 Fluorimetric Drug Discovery Assay Kit (Enzolifesciences: BML-AK511) and HDAC6 human recombinant (Calbiochem: 382180). For an HDAC1 assay, samples were treated at a concentration of 100, 1000 and 10000 nM. For an HDAC6 assay, samples were treated at a concentration of 0.1, 1, 10, 100 and 1000 nM. After such sample treatment, a reaction was continued at 37° C. for 60 minutes, then treated with a developer, and then subjected to reaction at 37° C. for 30 minutes, after which fluorescence intensity (Ex 390, Em 460) was measured by means of FlexStation3 (Molecular device).
`O=c1cc(-c2nnc(C(F)(F)F)o2)ccn1Cc1ccccc1F` [Compound 32, 1-(2-fluorobenzyl)-4-(5-(trifluoromethyl)-1,3,4-oxadiazole-2-yl)pyridine-2(1H)-one]: the concentration for half-maximal inhibition (IC50) – broadly, the concentration at which inhibition is half-maximal – stood at 2420 nM.

Take `CCC(CC)Cn1ccc(-c2nnc(C(F)F)o2)cc1=O` [Compound 27, 4-(5-(difluoromethyl)-1,3,4-oxadiazole-2-yl)-1-(2-ethylbutyl)pyridine-2(1H)-one]: the IC50 amounted to 726 nM. As for `CCN(CC)CCn1ccc(-c2nnc(C(F)F)o2)cc1=O` [Compound 11, 1-(2-(diethylamino)ethyl)-4-(5-(difluoromethyl)-1,3,4-oxadiazole-2-yl)pyridine-2(1H)one], the figure is 2250 nM; as for `O=c1cc(-c2nnc(C(F)(F)F)o2)ccn1Cc1cc(F)c(F)cc1F` [Compound 30, 1-(2,4,5-trifluorobenzyl)-4-(5-(trifluoromethyl)-1,3,4-oxadiazole-2-yl)pyridine-2(1H)one], 1790 nM. Then `O=C(Cn1ccc(-c2nnc(C(F)F)o2)cc1=O)c1ccc(Cl)s1` [Compound 56, 1-(2-(5-chlorothiophene-2-yl)-2-oxoethyl)-4-(5-(difluoromethyl)-1,3,4-oxadiazole-2-yl)pyridine-2(1H)-one], with 126 nM; and `Cc1cc(C(=O)Cn2ccc(-c3nnc(C(F)F)o3)cc2=O)c(F)cc1Cl` [Compound 23, 1-(2-(4-chloro-2-fluoro-5-methylphenyl)-2-oxoethyl)-4-(5-(difluoromethyl)-1,3,4-oxadiazole-2-yl)pyridine-2(1H)-one], with 598 nM; and `O=C(OCCn1ccc(-c2nnc(C(F)(F)F)o2)cc1=O)c1ccccc1` [Compound 39, 2-(2-oxo-4-(5-(trifluoromethyl)-1,3,4-oxadiazole-2-yl)pyridine-1(2H)-yl)ethyl benzoate], with 900 nM. Then `CS(=O)(=O)c1ccc(C(=O)Cn2ccc(-c3nnc(C(F)(F)F)o3)cc2=O)cc1` [Compound 35, 1-(2-(4-(methylsulfonyl)phenyl)-2-oxoethyl)-4-(5-(trifluoromethyl)-1,3,4-oxadiazole-2-yl)pyridine-2(1H)-one], with 2210 nM; and `O=C(Cn1ccc(-c2nnc(C(F)F)o2)cc1=O)c1cccs1` [Compound 50, 4-(5-(difluoromethyl)-1,3,4-oxadiazole-2-yl)-1-(2-oxo-2-(thiophene-2-yl)ethyl)pyridine-2(1H)-one], with 238 nM. In the case of `O=C(OCCn1ccc(-c2nnc(C(F)F)o2)cc1=O)c1ccccc1` [Compound 16, 2-(4-(5-(difluoromethyl)-1,3,4-oxadiazole-2-yl)-2-oxopyridine-1(2H)-yl)ethyl], the IC50 was determined as 952 nM. With `O=C(Cn1ccc(-c2nnc(C(F)F)o2)cc1=O)c1ccccc1` [Compound 3, 4-(5-(difluoromethyl)-1,3,4-oxadiazole-2-yl)-1-(2-oxo-2-phenylethyl)pyridine-2(1H)-one], the IC50 was determined as 210 nM. Then `O=C(Cn1ccc(-c2nnc(C(F)F)o2)cc1=O)c1ccc(Cl)c(Cl)c1` [Compound 18, 1-(2-(3,4-dichlorophenyl)-2-oxoethyl)-4-(5-(difluoromethyl)-1,3,4-oxadiazole-2-yl)pyridine-2(1H)-one], with 509 nM; and `CC(C)=CCn1ccc(-c2nnc(C(F)F)o2)cc1=O` [Compound 54, 4-(5-(difluoromethyl)-1,3,4-oxadiazole-2-yl)-1-(3-methylbut-2-en-1-yl)pyridine-2(1H)-one], with 663 nM; and `O=c1cc(-c2nnc(C(F)F)o2)ccn1C/C=C/c1ccccc1` [Compound 5, 1-cinnamyl-4-(5-(difluoromethyl)-1,3,4-oxadiazole-2-yl)pyridine-2(1H)-one], with 40 nM. Then `O=C(Cn1ccc(-c2nnc(C(F)F)o2)cc1=O)c1ccc(Cl)cc1` [Compound 19, 1-(2-(4-chlorophenyl)-2-oxoethyl)-4-(5-(difluoromethyl)-1,3,4-oxadiazole-2-yl)pyridine-2(1H)-one], with 351 nM; and `O=C(C(Cn1ccc(-c2nnc(C(F)F)o2)cc1=O)c1ccccc1)N1CCS(=O)(=O)CC1` (stereo not shown) [Compound 44], with 382 nM.
